{"source": "patent US20240207240A1", "about": "“Method for Improving or Treating Cognitive Dysfunction Complicating HIV-associated Cryptococcal Meningitis with Lenalidomide” (The First Affiliated Hospital Zhejiang University School of …, priority 2022, published 2024)", "key": {"[1]": {"system": "patients with cognitive dysfunction caused by HIV-associated CM-IRIS", "assay_type": "in vivo, human", "details": "for ΔMoCA: week 24 - week 0, median"}, "CSF cytokines": {"system": "CSF cytokines", "assay": "Detection of inflammatory cytokines in CSF (Human Cytokine/Chemokine/Growth Factor Panel A)", "assay_type": "in vivo", "procedure": "Detection of inflammatory cytokines in CSF: CSF samples were collected from the participants and centrifuged immediately; and the supernatant was stored at −80° C. until testing. 32 CSF cytokines were analyzed using the Human Cytokine/Chemokine/Growth Factor Panel A (Merck Millipore, St. Louis, USA): α-2-macroglobulin (α-2-M), apolipoprotein A-I (apoA-I), Apo-E, complement C3, complement factor H (CFH), fibroblast growth factor 2 (FGF-2), granulocyte-colony stimulating factor (G-CSF), granulocyte-macrophage colony-stimulating factor (GM-CSF), interferon-γ (IFN-γ), growth-regulated oncogene (GRO), soluble CD40 ligand (sCD40L), platelet-derived growth factor-AA (PDGF-AA), interleukin (IL)-12p40, IL-12p70, IL-13, IL-1α, IL-1β, IL-2, IL-3, IL-4, IL-6, IL-8, IL-10, IL-17α, monocyte chemoattractant protein-1 (MCP-1), macrophage inflammatory protein-la (MIP-la), MIP-1β, tumor necrosis factor-a (TNF-α), IL-17α, amyloid-β (1-42) (αβ42), total Tau (tTau) and phosphorylated Tau 181 (pTau181), The abbreviations of CSF cytokines are provided in Table 3."}, "[2]": {"details": "W 24, after 6 cycles lenalidomide, individual patients P1-P4 (cognitive improvement group)"}, "[3]": {"details": "W 24, after 6 cycles lenalidomide, individual patients P5-P7 (cognitive non-improvement group)"}}, "note": "Where “and” joins values, the source holds several entries; their conditions need not be identical. Equal values may be shown once. Read-outs that look alike come from different tables or passages of the source.", "data": [{"compound": "Nc1cccc2c1CN(C1CCC(=O)NC1=O)C2=O", "note": "(stereo not shown) [lenalidomide]", "values": [{"measurement": "median MoCA score", "setting": "[1]; W24, after 6 cycles lenalidomide 25 mg/day (21 days on, 7 off), 7 patients, baseline 23.0 (13.0-24.0), P=0.018", "result": "26.0 (24.0-28.0)"}, {"measurement": "memory score in the MoCA", "setting": "[1]; W24, baseline 1.0 (0-3.0), P=0.026", "result": "4.0 (3.0-5.0)"}, {"measurement": "MoCA-W 24", "setting": "[1]; individual Patients 1-4 (cognitive improvement group)", "result": "30 scores and 26 scores (2×) and 28 scores"}, {"measurement": "MoCA-W 24", "setting": "[1]; individual Patients 5-7 (cognitive non-improvement group)", "result": "24 scores and 25 scores and 19 scores"}, {"measurement": "ΔMoCA", "setting": "[1]; CI group", "result": 8.5, "unit": "scores"}, {"measurement": "ΔMoCA", "setting": "[1]; CNI group", "result": 1.0, "unit": "scores"}, {"measurement": "change in CSF G-CSF level after treatment", "setting": "CSF cytokines; CI group, P<0.001", "result": "significant decline"}, {"measurement": "change in CSF GRO level after treatment", "setting": "CSF cytokines; CI group, P<0.001", "result": "significant decline"}, {"measurement": "change in CSF IL-6 level after treatment", "setting": "CSF cytokines; CI group, P<0.001", "result": "significant decline"}, {"measurement": "change in CSF IL-8 level after treatment", "setting": "CSF cytokines; CI group, P<0.001", "result": "significant decline"}, {"measurement": "change in CSF IL-10 level after treatment", "setting": "CSF cytokines; CI group, P<0.001", "result": "significant decline"}, {"measurement": "change in CSF CFH level after treatment", "setting": "CSF cytokines; CI group, P=0.002", "result": "significant decline"}, {"measurement": "change in CSF TNF-α level after treatment", "setting": "CSF cytokines; CI group, P=0.002", "result": "significant decline"}, {"measurement": "change in CSF α-2-M level after treatment", "setting": "CSF cytokines; CI group, P=0.003", "result": "significant decline"}, {"measurement": "change in CSF tTau level after treatment", "setting": "CSF cytokines; CNI group, P=0.030", "result": "increased significantly"}, {"measurement": "CSF Apo. E", "setting": "CSF cytokines; [2]", "result": "5683 pg/mL and 1764 pg/mL and 2487 pg/mL and 1873 pg/mL"}, {"measurement": "CSF CFH", "setting": "CSF cytokines; [2]", "result": "4617 pg/mL and 2381 pg/mL and 2275 pg/mL and 1603 pg/mL"}, {"measurement": "CSF Complement C3", "setting": "CSF cytokines; [2]", "result": "10475 pg/mL and 4010 pg/mL and 818.22 pg/mL and 1909 pg/mL"}, {"measurement": "CSF FGF-2", "setting": "CSF cytokines; [2]", "result": 16.08, "unit": "pg/mL"}, {"measurement": "CSF G-CSF", "setting": "CSF cytokines; [2]", "result": "22.02 pg/mL and 3.57 pg/mL (2×) and 5.99 pg/mL"}, {"measurement": "CSF GM-CSF", "setting": "CSF cytokines; [2]", "result": "0.98 pg/mL and 1.02 pg/mL and 1.94 pg/mL and 2.81 pg/mL"}, {"measurement": "CSF GRO", "setting": "CSF cytokines; [2]", "result": "111.65 pg/mL and 63.2 pg/mL and 32 pg/mL and 149.74 pg/mL"}, {"measurement": "CSF IFN-γ", "setting": "CSF cytokines; [2]", "result": "1.31 pg/mL and 0.7 pg/mL and 0.66 pg/mL and 1.6 pg/mL"}, {"measurement": "CSF IL-1α", "setting": "CSF cytokines; [2]", "result": "1.91 pg/mL and 1.71 pg/mL and 1.65 pg/mL and 1.37 pg/mL"}, {"measurement": "CSF IL-1β", "setting": "CSF cytokines; [2]", "result": "1.15 pg/mL and 1.09 pg/mL and 0.88 pg/mL and 1.11 pg/mL"}, {"measurement": "CSF IL-2", "setting": "CSF cytokines; [2]", "result": "0.72 pg/mL and 0.69 pg/mL and 0.64 pg/mL and 0.81 pg/mL"}, {"measurement": "CSF IL-3", "setting": "CSF cytokines; [2]", "result": "0.41 pg/mL and 0.44 pg/mL and 0.43 pg/mL and 0.34 pg/mL"}, {"measurement": "CSF IL-4", "setting": "CSF cytokines; [2]", "result": "1.49 pg/mL and 2.22 pg/mL and 0.82 pg/mL (2×)"}, {"measurement": "CSF IL-6", "setting": "CSF cytokines; [2]", "result": "12.8 pg/mL and 63.58 pg/mL and 2.85 pg/mL (2×)"}, {"measurement": "CSF IL-8", "setting": "CSF cytokines; [2]", "result": "175.42 pg/mL and 164.92 pg/mL and 64.25 pg/mL and 118.93 pg/mL"}, {"measurement": "CSF IL-10", "setting": "CSF cytokines; [2]", "result": "4.21 pg/mL and 4.14 pg/mL and 2.45 pg/mL and 4.07 pg/mL"}, {"measurement": "CSF IL-12p40", "setting": "CSF cytokines; [2]", "result": "1.78 pg/mL and 0.38 pg/mL and 0.92 pg/mL and 10.92 pg/mL"}, {"measurement": "CSF IL-12p70", "setting": "CSF cytokines; [2]", "result": "2.46 pg/mL and 0.67 pg/mL and 2.09 pg/mL and 1.34 pg/mL"}, {"measurement": "CSF IL-13", "setting": "CSF cytokines; [2]", "result": "1.19 pg/mL and 0.8 pg/mL and 0.71 pg/mL and 1.09 pg/mL"}, {"measurement": "CSF IL-17α", "setting": "CSF cytokines; [2]", "result": 0.62, "unit": "pg/mL"}, {"measurement": "CSF IP-10", "setting": "CSF cytokines; [2]", "result": "12150 pg/mL and 4404 pg/mL and 3063 pg/mL and 12231 pg/mL"}, {"measurement": "CSF MCP-1", "setting": "CSF cytokines; [2]", "result": "1624 pg/mL and 2268 pg/mL and 987.31 pg/mL and 923.8 pg/mL"}, {"measurement": "CSF MIP-1α", "setting": "CSF cytokines; [2]", "result": "4.61 pg/mL and 18.47 pg/mL and 3.38 pg/mL (2×)"}, {"measurement": "CSF MIP-1β", "setting": "CSF cytokines; [2]", "result": "23.79 pg/mL and 31.7 pg/mL and 9.58 pg/mL and 5.86 pg/mL"}, {"measurement": "CSF PDGF-AA", "setting": "CSF cytokines; [2]", "result": "5.66 pg/mL and 6.92 pg/mL and 2.78 pg/mL (2×)"}, {"measurement": "CSF TNF-α", "setting": "CSF cytokines; [2]", "result": "7.46 pg/mL and 6.82 pg/mL and 2.46 pg/mL and 8.22 pg/mL"}, {"measurement": "CSF apoA-I", "setting": "CSF cytokines; [2]", "result": "6850 pg/mL and 683.32 pg/mL and 668.25 pg/mL and 788.79 pg/mL"}, {"measurement": "CSF pTau 181", "setting": "CSF cytokines; [2]", "result": "61.43 pg/mL and 38.37 pg/mL and 42.96 pg/mL and 19.12 pg/mL"}, {"measurement": "CSF sCD40L", "setting": "CSF cytokines; [2]", "result": "2.49 pg/mL (3×) and 4.91 pg/mL"}, {"measurement": "CSF tTau", "setting": "CSF cytokines; [2]", "result": "1594 pg/mL and 431.47 pg/mL and 752.55 pg/mL and 234.58 pg/mL"}, {"measurement": "CSF α-2-M", "setting": "CSF cytokines; [2]", "result": "10777 pg/mL and 4765 pg/mL and 3814 pg/mL and 2942 pg/mL"}, {"measurement": "CSF αβ42", "setting": "CSF cytokines; [2]", "result": "2364 pg/mL and 708.02 pg/mL and 1573 pg/mL and 693.92 pg/mL"}, {"measurement": "CSF Apo. E", "setting": "CSF cytokines; [3]", "result": "5462 pg/mL and 2829 pg/mL and 2633 pg/mL"}, {"measurement": "CSF CFH", "setting": "CSF cytokines; [3]", "result": "3699 pg/mL and 1253 pg/mL and 2446 pg/mL"}, {"measurement": "CSF Complement C3", "setting": "CSF cytokines; [3]", "result": "4249 pg/mL and 2914 pg/mL and 1335 pg/mL"}, {"measurement": "CSF FGF-2", "setting": "CSF cytokines; [3]", "result": "13.73 pg/mL and 48.91 pg/mL"}, {"measurement": "CSF G-CSF", "setting": "CSF cytokines; [3]", "result": 2.84, "unit": "pg/mL"}]}]}
